From the supplement of paper PMC8882468

What follows are molecules tested on HCI-010 (organoid from a breast cancer xenograft) (assay: CTG-3D luminescence at 96 h relative to day-0 seeding control (ratio to day 0); higher = more growth / less cytotoxicity; PDxO 3D drug screen, 96 h, CTG-3D normalised to day-0 seeding control.). Conditions: 0.005 µM; days in culture: 103.

SMILES | CTG-3D luminescence at 96 h
C[C@@H]1COCCN1c1cc(C2([S@](C)(=N)=O)CC2)nc(-c2cc[nH]c3nccc2-3)n1 [ceralasertib] | 3.45
CCN1CCN(Cc2ccc(Nc3ncc(F)c(-c4cc(F)c5nc(C)n(C(C)C)c5c4)n3)nc2)CC1 [abemaciclib] | 3.28
NC1(C(=O)N[C@@H](CCO)c2ccc(Cl)cc2)CCN(c2nc[nH]c3nccc2-3)CC1 [capivasertib] | 3.91
CC(C)n1nc(-c2ccc3oc(N)nc3c2)c2c(N)ncnc21 [sapanisertib] | 3
O=C(c1ccc(F)c(F)c1Nc1ccc(I)cc1F)N1CC(O)([C@@H]2CCCCN2)C1 [cobimetinib] | 3.78
C[C@H](NC(=O)CCC(F)(F)F)C(=O)N[C@@H]1C(=O)N(CCO)c2ncccc2-c2ccccc21 [crenigacestat] | 3.34
Cc1cc(Nc2ncc(Cl)c(Nc3ccccc3S(=O)(=O)C(C)C)n2)c(OC(C)C)cc1C1CCNCC1 [ceritinib] | 3.35
CS(=O)(=O)c1ccc(C(=O)Nc2ccc(Cl)c(-c3ccccn3)c2)c(Cl)c1 [vismodegib] | 3
NC(=O)c1cccc2cn(-c3ccc([C@@H]4CCCNC4)cc3)nc12 [niraparib] | 3.13

Same assay, conditions: 0.1 µM; days in culture: 52

SMILES | CTG-3D luminescence at 96 h
C[C@@H]1COCCN1c1cc(C2([S@](C)(=N)=O)CC2)nc(-c2cc[nH]c3nccc2-3)n1 [ceralasertib] | 2.04
CCN1CCN(Cc2ccc(Nc3ncc(F)c(-c4cc(F)c5nc(C)n(C(C)C)c5c4)n3)nc2)CC1 [abemaciclib] | 2.47
NC1(C(=O)N[C@@H](CCO)c2ccc(Cl)cc2)CCN(c2nc[nH]c3nccc2-3)CC1 [capivasertib] | 2.54
CC(C)n1nc(-c2ccc3oc(N)nc3c2)c2c(N)ncnc21 [sapanisertib] | 0.958
O=C(c1ccc(F)c(F)c1Nc1ccc(I)cc1F)N1CC(O)([C@@H]2CCCCN2)C1 [cobimetinib] | 2.62
C[C@H](NC(=O)CCC(F)(F)F)C(=O)N[C@@H]1C(=O)N(CCO)c2ncccc2-c2ccccc21 [crenigacestat] | 2.54
Cc1cc(Nc2ncc(Cl)c(Nc3ccccc3S(=O)(=O)C(C)C)n2)c(OC(C)C)cc1C1CCNCC1 [ceritinib] | 2.54
CS(=O)(=O)c1ccc(C(=O)Nc2ccc(Cl)c(-c3ccccn3)c2)c(Cl)c1 [vismodegib] | 2.26
NC(=O)c1cccc2cn(-c3ccc([C@@H]4CCCNC4)cc3)nc12 [niraparib] | 2.55

Same assay, conditions: 0.1 µM; days in culture: 65

SMILES | CTG-3D luminescence at 96 h
C[C@@H]1COCCN1c1cc(C2([S@](C)(=N)=O)CC2)nc(-c2cc[nH]c3nccc2-3)n1 [ceralasertib] | 1.57
CCN1CCN(Cc2ccc(Nc3ncc(F)c(-c4cc(F)c5nc(C)n(C(C)C)c5c4)n3)nc2)CC1 [abemaciclib] | 1.78
NC1(C(=O)N[C@@H](CCO)c2ccc(Cl)cc2)CCN(c2nc[nH]c3nccc2-3)CC1 [capivasertib] | 1.6
CC(C)n1nc(-c2ccc3oc(N)nc3c2)c2c(N)ncnc21 [sapanisertib] | 0.701
O=C(c1ccc(F)c(F)c1Nc1ccc(I)cc1F)N1CC(O)([C@@H]2CCCCN2)C1 [cobimetinib] | 1.67
C[C@H](NC(=O)CCC(F)(F)F)C(=O)N[C@@H]1C(=O)N(CCO)c2ncccc2-c2ccccc21 [crenigacestat] | 1.64
Cc1cc(Nc2ncc(Cl)c(Nc3ccccc3S(=O)(=O)C(C)C)n2)c(OC(C)C)cc1C1CCNCC1 [ceritinib] | 1.94
CS(=O)(=O)c1ccc(C(=O)Nc2ccc(Cl)c(-c3ccccn3)c2)c(Cl)c1 [vismodegib] | 1.6
NC(=O)c1cccc2cn(-c3ccc([C@@H]4CCCNC4)cc3)nc12 [niraparib] | 1.63

Same assay, conditions: 0.1 µM; days in culture: 103

SMILES | CTG-3D luminescence at 96 h
C[C@@H]1COCCN1c1cc(C2([S@](C)(=N)=O)CC2)nc(-c2cc[nH]c3nccc2-3)n1 [ceralasertib] | 3
CCN1CCN(Cc2ccc(Nc3ncc(F)c(-c4cc(F)c5nc(C)n(C(C)C)c5c4)n3)nc2)CC1 [abemaciclib] | 3.44
NC1(C(=O)N[C@@H](CCO)c2ccc(Cl)cc2)CCN(c2nc[nH]c3nccc2-3)CC1 [capivasertib] | 3.21
CC(C)n1nc(-c2ccc3oc(N)nc3c2)c2c(N)ncnc21 [sapanisertib] | 1.48
O=C(c1ccc(F)c(F)c1Nc1ccc(I)cc1F)N1CC(O)([C@@H]2CCCCN2)C1 [cobimetinib] | 3.21
C[C@H](NC(=O)CCC(F)(F)F)C(=O)N[C@@H]1C(=O)N(CCO)c2ncccc2-c2ccccc21 [crenigacestat] | 3.15
Cc1cc(Nc2ncc(Cl)c(Nc3ccccc3S(=O)(=O)C(C)C)n2)c(OC(C)C)cc1C1CCNCC1 [ceritinib] | 3.68
CS(=O)(=O)c1ccc(C(=O)Nc2ccc(Cl)c(-c3ccccn3)c2)c(Cl)c1 [vismodegib] | 3.14
NC(=O)c1cccc2cn(-c3ccc([C@@H]4CCCNC4)cc3)nc12 [niraparib] | 3.19

Same assay, conditions: 1 µM; days in culture: 52

SMILES | CTG-3D luminescence at 96 h
C[C@@H]1COCCN1c1cc(C2([S@](C)(=N)=O)CC2)nc(-c2cc[nH]c3nccc2-3)n1 [ceralasertib] | 0.835
CCN1CCN(Cc2ccc(Nc3ncc(F)c(-c4cc(F)c5nc(C)n(C(C)C)c5c4)n3)nc2)CC1 [abemaciclib] | 1.99
NC1(C(=O)N[C@@H](CCO)c2ccc(Cl)cc2)CCN(c2nc[nH]c3nccc2-3)CC1 [capivasertib] | 2.01
CC(C)n1nc(-c2ccc3oc(N)nc3c2)c2c(N)ncnc21 [sapanisertib] | 0.693
O=C(c1ccc(F)c(F)c1Nc1ccc(I)cc1F)N1CC(O)([C@@H]2CCCCN2)C1 [cobimetinib] | 2.15
C[C@H](NC(=O)CCC(F)(F)F)C(=O)N[C@@H]1C(=O)N(CCO)c2ncccc2-c2ccccc21 [crenigacestat] | 2.37
Cc1cc(Nc2ncc(Cl)c(Nc3ccccc3S(=O)(=O)C(C)C)n2)c(OC(C)C)cc1C1CCNCC1 [ceritinib] | 2.64
CS(=O)(=O)c1ccc(C(=O)Nc2ccc(Cl)c(-c3ccccn3)c2)c(Cl)c1 [vismodegib] | 2.4
NC(=O)c1cccc2cn(-c3ccc([C@@H]4CCCNC4)cc3)nc12 [niraparib] | 2.02

Same assay, conditions: 1 µM; days in culture: 65

SMILES | CTG-3D luminescence at 96 h
C[C@@H]1COCCN1c1cc(C2([S@](C)(=N)=O)CC2)nc(-c2cc[nH]c3nccc2-3)n1 [ceralasertib] | 0.693
CCN1CCN(Cc2ccc(Nc3ncc(F)c(-c4cc(F)c5nc(C)n(C(C)C)c5c4)n3)nc2)CC1 [abemaciclib] | 1.2
NC1(C(=O)N[C@@H](CCO)c2ccc(Cl)cc2)CCN(c2nc[nH]c3nccc2-3)CC1 [capivasertib] | 1.47
CC(C)n1nc(-c2ccc3oc(N)nc3c2)c2c(N)ncnc21 [sapanisertib] | 0.447
O=C(c1ccc(F)c(F)c1Nc1ccc(I)cc1F)N1CC(O)([C@@H]2CCCCN2)C1 [cobimetinib] | 1.6
C[C@H](NC(=O)CCC(F)(F)F)C(=O)N[C@@H]1C(=O)N(CCO)c2ncccc2-c2ccccc21 [crenigacestat] | 1.79
Cc1cc(Nc2ncc(Cl)c(Nc3ccccc3S(=O)(=O)C(C)C)n2)c(OC(C)C)cc1C1CCNCC1 [ceritinib] | 1.83
CS(=O)(=O)c1ccc(C(=O)Nc2ccc(Cl)c(-c3ccccn3)c2)c(Cl)c1 [vismodegib] | 1.71
NC(=O)c1cccc2cn(-c3ccc([C@@H]4CCCNC4)cc3)nc12 [niraparib] | 1.54

Same assay, conditions: 1 µM; days in culture: 103

SMILES | CTG-3D luminescence at 96 h
C[C@@H]1COCCN1c1cc(C2([S@](C)(=N)=O)CC2)nc(-c2cc[nH]c3nccc2-3)n1 [ceralasertib] | 1.49
CCN1CCN(Cc2ccc(Nc3ncc(F)c(-c4cc(F)c5nc(C)n(C(C)C)c5c4)n3)nc2)CC1 [abemaciclib] | 3.5
NC1(C(=O)N[C@@H](CCO)c2ccc(Cl)cc2)CCN(c2nc[nH]c3nccc2-3)CC1 [capivasertib] | 2.35
CC(C)n1nc(-c2ccc3oc(N)nc3c2)c2c(N)ncnc21 [sapanisertib] | 1.26
O=C(c1ccc(F)c(F)c1Nc1ccc(I)cc1F)N1CC(O)([C@@H]2CCCCN2)C1 [cobimetinib] | 2.72
C[C@H](NC(=O)CCC(F)(F)F)C(=O)N[C@@H]1C(=O)N(CCO)c2ncccc2-c2ccccc21 [crenigacestat] | 3.09
Cc1cc(Nc2ncc(Cl)c(Nc3ccccc3S(=O)(=O)C(C)C)n2)c(OC(C)C)cc1C1CCNCC1 [ceritinib] | 3.99
CS(=O)(=O)c1ccc(C(=O)Nc2ccc(Cl)c(-c3ccccn3)c2)c(Cl)c1 [vismodegib] | 2.91
NC(=O)c1cccc2cn(-c3ccc([C@@H]4CCCNC4)cc3)nc12 [niraparib] | 2.67

Same assay, conditions: 10 µM; days in culture: 52

SMILES | CTG-3D luminescence at 96 h
C[C@@H]1COCCN1c1cc(C2([S@](C)(=N)=O)CC2)nc(-c2cc[nH]c3nccc2-3)n1 [ceralasertib] | 0.422
CCN1CCN(Cc2ccc(Nc3ncc(F)c(-c4cc(F)c5nc(C)n(C(C)C)c5c4)n3)nc2)CC1 [abemaciclib] | 0.77
NC1(C(=O)N[C@@H](CCO)c2ccc(Cl)cc2)CCN(c2nc[nH]c3nccc2-3)CC1 [capivasertib] | 1.78
CC(C)n1nc(-c2ccc3oc(N)nc3c2)c2c(N)ncnc21 [sapanisertib] | 0.249
O=C(c1ccc(F)c(F)c1Nc1ccc(I)cc1F)N1CC(O)([C@@H]2CCCCN2)C1 [cobimetinib] | 1.67
C[C@H](NC(=O)CCC(F)(F)F)C(=O)N[C@@H]1C(=O)N(CCO)c2ncccc2-c2ccccc21 [crenigacestat] | 2.23
Cc1cc(Nc2ncc(Cl)c(Nc3ccccc3S(=O)(=O)C(C)C)n2)c(OC(C)C)cc1C1CCNCC1 [ceritinib] | -0.0117
CS(=O)(=O)c1ccc(C(=O)Nc2ccc(Cl)c(-c3ccccn3)c2)c(Cl)c1 [vismodegib] | 2.15
NC(=O)c1cccc2cn(-c3ccc([C@@H]4CCCNC4)cc3)nc12 [niraparib] | 0.332
